The values below come from PMC6934184, “Selective DNA-PKcs inhibition extends the therapeutic index of localized radiotherapy and chemotherapy” (The Journal of Clinical Investigation, 2019).

The test concerns the target T1, CDK5 (Inactive) (Homo sapiens, UniProt Q00535).
T1 construct: purchased Thermo Fisher Scientific (Life Technologies) SelectScreen
Kind of test: SelectScreen LanthaScreen. To be noted: read-out: % displacement. It is filed as binding. In a few lines:
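Percent values come from Thermo SelectScreen profiling of NU5455, combining activity and binding assays. CSF1R was run in Z'LYTE format at Km app ATP, and CAMK1 in Adapta format with ATP listed at 10.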

T1 sequence (Q00535 whole entry): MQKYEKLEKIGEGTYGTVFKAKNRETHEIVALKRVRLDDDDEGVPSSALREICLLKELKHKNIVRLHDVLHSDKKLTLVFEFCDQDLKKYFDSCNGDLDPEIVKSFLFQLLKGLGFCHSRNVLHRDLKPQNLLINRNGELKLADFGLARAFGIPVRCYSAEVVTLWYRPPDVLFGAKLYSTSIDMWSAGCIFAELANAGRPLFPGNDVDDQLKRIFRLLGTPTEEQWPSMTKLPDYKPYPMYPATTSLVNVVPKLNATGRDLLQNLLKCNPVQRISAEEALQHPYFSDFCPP

With `CN(C(=O)CN1CCOCC1)c1ccc2sc3c(-c4cccc5c(=O)cc(N6CC7CCC(C6)O7)oc45)cccc3c2c1` [NU5455], the inhibition at 1 µM is -2.1%.
